A short description of data set [1]: In vivo active ingredient release: tongue tissue and plasma amounts in healthy rats. The arrangement: species or system rat. As to the method:
The instant example analyzes exemplary pharmaceutical formulations applied to the tongue of healthy rats for different time periods up to 4 hours. Concentrations of mycophenolic acid and oxaliplatin in tongue tissues were measured at the corresponding times and up to 12 hours from the beginning of the formulation application in rats. The following are groups of rats that were studied: • Group #1: Formulation applied for 0.5 hour and rat tongues were harvested for drug analysis. N=8 rats. • Group #2: Formulation applied for 1 hour and rat tongues were harvested for drug analysis. N=13 rats. • Group #3: Formulation applied for 2 hours and rat tongues were harvested for drug analysis. N=13 rats. • Group #4: Formulation applied for 3 hours and rat tongues were harvested for drug analysis. N=12 rats. • Group #5: Formulation applied for 4 hours and rat tongues were harvested for drug analysis. N=6 rats. • Group #6: Formulation applied for 4 hours and removed from the rat. At 8 hours after the start of the Formulation application, rat tongues were harvested for drug analysis. N=7 rats. • Group #7: Formulation applied for 4 hours and removed from the rat. At 12 hours after the start of the Formulation application, rat tongues were harvested for drug analysis. N=9 rats.
• 1. Animal care and treatment. […] Combination index (CI) and isoborogram. […] Pharmaceutical formulation.

The nature of data set [2]: Plasma concentrations before the fifth dose in 4NQO-treated rats. It counts as in vivo, rat.
In data set [3] the test system is Dysplastic oral keratinocyte (DOK) cells. Put plainly: MTT growth inhibition (IC50) in DOK cells. It counts as cell-based. As to conditions: MTT assay; for IC50: read-out: IC50 concentration. The text has this: • 1. Animal care and treatment. […] Combination index (CI) and isoborogram. […] Pharmaceutical formulation. […] LC-MS/MS.
The nature of data set [4]: Stability of OXP in solutions. The data set is classed as physicochemical. An excerpt: These chloride derivatives of OXP are not detectable by current available assays.

Molecules are shown by their SMILES. Where “and” joins values, the source holds several entries; their conditions need not be identical. Equal entries are not always repeated. Entries after “also recorded” stand apart in the source; their conditions may differ. Where two headings read alike, the source gives them in different places.

With `O=C1[O][Pt]2([NH][C@@H]3CCCC[C@H]3[NH]2)[O]C1=O` (relative stereo) [OXP, [SP-4-2-(1R-trans)]-(1,2-cyclohexanediamine-N,N′)[ethanedioato(2-)-O,O′]platinum], the “oxaliplatin in rat tongue as % of the formulation active ingredient load” value in data set [1] (0.5-hour formulation application group) was “about 21%”. The oxaliplatin in plasma result in data set [1] (any groups) is recorded as “no detectable oxaliplatin in plasma”. Besides, the “Plasma concentration of oxaliplatin immediately before the fifth dose application” value in data set [2] (4NQO induced rats, daily 2-hours supra-lingual formulation (9,040 ng MPS, 680 ng OXP)) is “not detectible”; in data set [2] (4NQO induced rats, daily 2-hours supra-lingual formulation (9,040 ng MPS, 680 ng OXP), listed as oxaliplatin), “No detectable levels; also recorded: Not detectible (ND)”. Moreover, the IC50 in data set [3] is 1.67 µM. Besides, the “stability of OXP in chloride-containing solutions” value in data set [4] (NaCl (0.9%, 3%), KCl (3%)) was “converted by chloride in a time and concentration-dependent manner”. Moreover, the “stability of OXP in NaPi, glucose, or H2O solutions and solutions containing the bioadhesive material components” value in data set [4] (NaPi 0.2M, glucose 5%, H2O, PAA, DOPA, CMC) was “remains stable”.
Turning to `O=c1[nH]cc(F)c(=O)[nH]1` [5-FU], the IC50 concentration in data set [3] was 3.33 mg/L.
`COc1c(C)c2c(c(O)c1C/C=C(\C)CCC(=O)O)C(=O)OC2` [MPA]: the IC50 in data set [3] (Keratinocyte) worked out at 13.3 µM.
In the case of `COc1c(C)c2c(c(O)c1C/C=C(\C)CCC(=O)O)C(=O)OC2` [MPS, mycophenolate], the “MPS detected in rat tongue as % of the formulation drug load” value in data set [1] (0.5 hour supra-lingual application) is recorded as “about 55%”. In data set [1] (all groups), the “plasma MPS concentrations” value is on record as “less than 10 ng/mL”. Also, the concentration at 8 h in data set [1] (male, Sprague-Dawley, rat, plasma, healthy rats, applied 4 hours, sampled 4 hours after removal (8 hours from beginning), mean ± SD) was found to be 6.5 ± 1.3 ng/mL. Besides, in data set [1] (male, Sprague-Dawley, rat, plasma, healthy rats, applied 4 hours, sampled 8 hours after removal (12 hours from beginning), mean ± SD), the concentration at 12 h was found to be 4.26 ± 0.71 ng/mL. In addition, the concentration at 1 h in data set [1] (male, Sprague-Dawley, rat, plasma, healthy rats, supra-lingual formulation, 1 hour of application, mean ± SD) is 0.96 ± 0.26 ng/mL. For the same molecule, in data set [1] (male, Sprague-Dawley, rat, plasma, healthy rats, supra-lingual formulation, 2 hours of application, mean ± SD), the concentration at 2 h amounted to 2.09 ± 0.76 ng/mL. Further, the concentration at 3 h in data set [1] (male, Sprague-Dawley, rat, plasma, healthy rats, supra-lingual formulation, 3 hours of application, mean ± SD) came to 2.76 ± 0.68 ng/mL. Also, the concentration at 4 h in data set [1] (male, Sprague-Dawley, rat, plasma, healthy rats, supra-lingual formulation, 4 hours of application, mean ± SD) was 1.76 ± 0.53 ng/mL. The “Plasma concentration of mycophenolate immediately before the fifth dose application” value in data set [2] (4NQO induced rats, daily 2-hours supra-lingual formulation (9,040 ng MPS, 680 ng OXP), individual rats, steady-state trough) is 8.24 ng/mL and 6.84 ng/mL and 3.83 ng/mL and 2.54 ng/mL and 4.82 ng/mL and 2.37 ng/mL and 5.18 ng/mL. Also, the “plasma concentration of MPS right before the placement of the last (fifth) formulation, group value” in data set [2] (group treated with OXP-MPS formulations, 2 hours × 5 days) is given as 4.52 (+2.23) ng/ml.
Take `CC(=O)O[C@H]1C(=O)[C@@]2(C)[C@H]([C@H](OC(=O)c3ccccc3)[C@]3(O)C[C@H](OC(=O)[C@H](O)[C@@H](NC(=O)c4ccccc4)c4ccccc4)C(C)=C1C3(C)C)[C@]1(OC(C)=O)CO[C@@H]1C[C@@H]2O` [paclitaxel]: in data set [3] (Keratinocyte), the IC50 is 0.00041 µM.
